From patent US20210244704A1, “Cabazitaxel in mCRPC Patients Previously Treated with Docetaxel and Who Failed a Prior androgen signaling targeted inhibitor Agent” (SANOFI MATURE IP, priority 2019, published 2021)

Experiments:
[1] = test system: symptomatic skeletal events in mCRPC patients; experiment: Same clinical study: symptomatic skeletal events (SSE); assay type: in vivo, human
Description: Time to symptomatic skeletal event rate: is defined as the time interval between the date of randomization and the date of the occurrence of the first event defining a symptomatic skeletal event (occurrence of a new symptomatic fracture, use of radiation therapy to relieve bone pain, occurrence of spinal cord compression or cancer-related orthopedic surgical intervention).
SSEs were defined as either the use of external beam radiation to relieve bone pain, occurrence of new symptomatic pathologic fractures, occurrence of spinal cord compression, or tumor-related orthopedic surgical intervention. SSEs were evaluated at baseline, at each visit, at the end of treatment, and every 12 weeks during follow-up. Standard imaging (bone scans and computed tomography or magnetic resonance imaging of the pelvis, abdomen, and chest) was scheduled at baseline and every 12 weeks until imaging-based disease progression. Pathologic fractures and spinal cord compression were assessed by imaging as needed throughout the study. Time to SSE was defined as time from randomization until first documented SSE.
Efficacy analysis used all randomized patients. Stratified log-rank tests were used to analyze time-to-event data. The primary analysis compared radiographic progression-free survival between the two treatment groups using a stratified log-rank test. Survival curves were generated using Kaplan-Meier estimates. Hazard ratios and associated 95% confidence intervals [CI] were estimated using a stratified Cox proportional hazards model. Stratified Cochran-Mantel-Haenszel chi-square tests were used to analyze categorical data. Descriptive statistics were used to summarize patient characteristics. The safety population (randomized patients who received at least one dose of study treatment) was used for all safety analyses.

[2] = test system: metastatic castration-resistant prostate cancer (mCRPC) patients previously treated with docetaxel and who failed a prior androgen signaling targeted inhibitor; experiment: Randomized open-label clinical study, cabazitaxel vs abiraterone acetate or enzalutamide: imaging-based PFS, OS, PFS, PSA and tumor response; assay type: in vivo, human; details: for Deaths: at cut-off date; for rPFS, HR: cabazitaxel vs abiraterone or enzalutamide
Description: Imaging-based progression-free survival (rPFS): defined as the time from randomization until the occurrence of one of the following events: objective tumor progression (Response Evaluation Criteria in Solid Tumors, version 1.1), progression of bone lesions (Prostate Cancer Working Group 2) or death due to any cause.
Overall survival (OS): defined as the time from the date of randomization to the date of death due to any cause.
Progression-free survival (PFS) defined as the time from randomization until the occurrence of objective tumor progression (using Response Evaluation Criteria in Solid Tumors, version 1.1), or progression of bone lesions (using Prostate Cancer Working Group 2 criteria), or symptomatic progression (defined as the development of urinary or bowel symptoms related to prostate cancer or requiring a change of anticancer therapy), or pain progression, or death due to any cause.
PSA response: defined as a decline of serum PSA from baseline of ≥50% with confirmation from a second PSA value measured at least 3 weeks apart. Best PSA response was defined using the Prostate Cancer Working Group criteria 2 definition.
Tumor response (TR): was measured using Response Evaluation Criteria in Solid Tumors, version 1.1 in patients with measurable disease.
A clinical study was performed wherein patients received cabazitaxel versus an Androgen Receptor (AR)-targeted agent (abiraterone acetate or enzalutamide) in metastatic castration-resistant prostate cancer (mCRPC) patients previously treated with docetaxel and who failed a prior androgen signaling pathway inhibitor within 12 months.
For patients in Arm A, cabazitaxel 25 mg/m^2 was administered intravenously over 1 hour every 3 weeks along with oral prednisone 10 mg given daily. Primary prophylactic granulocyte-colony stimulating factor (G-CSF) was required at each cycle for all patients in the cabazitaxel arm
For patients in Arm B, abiraterone acetate was administered orally at 1000 mg once daily along with oral prednisone 5 mg given twice daily or enzalutamide was administered orally at 160 mg once daily continuously. Abiraterone acetate was administered to patients who had received enzalutamide prior to study entry. Enzalutamide was administered to patients who received prior abiraterone acetate.
Each patient was treated until imaging-based disease progression, unacceptable toxicity, or patient's refusal of further study treatment. All patients were followed when on study treatment and after completion of study treatment during follow-up period until death, the study cut-off date, or withdrawal of patients' consent whichever came first.
Eligible patients were randomized to receive either cabazitaxel or an AR pathway inhibitor (abiraterone acetate or enzalutamide; dependent on the use of a previous androgen signaling targeted inhibitor) in a 1:1 ratio. Stratification criteria were Eastern Cooperative Oncology Group performance status, a 5-point scale where higher numbers indicate greater disability (0-1 vs. 2), and time to disease progression (≤6 months vs. >6-12 months) and timing (before vs. after docetaxel) with previous alternative AR pathway inhibitors.
Cabazitaxel 25 mg/m^2, was administered intravenously over 1 hour every 3 weeks with oral prednisone 10 mg daily. Premedication included an antihistamine, glucocorticoid (dexamethasone 8 mg or equivalent), and histamine 2 receptor antagonist. Antiemetic prophylaxis was administered at physician's discretion. Primary prophylactic granulocyte-colony stimulating factor was required during each cycle of cabazitaxel. Patients received either abiraterone acetate (1000 mg orally once daily and oral prednisone 5 mg twice daily) or enzalutamide (160 mg orally once daily) continuously. A treatment cycle was 3 weeks in both arms. Abiraterone acetate was given to patients who previously received enzalutamide before study entry. Enzalutamide was given to patients who previously received abiraterone acetate. […]

[3] = cabazitaxel vs androgen signaling targeted inhibitor

Compound: CO[C@H]1C(=O)[C@]2(C)[C@@H](OC)C[C@H]3OC[C@@]3(OC(C)=O)[C@H]2[C@H](OC(=O)c2ccccc2)[C@]2(O)C[C@H](OC(=O)[C@H](O)[C@@H](NC(=O)OC(C)(C)C)c3ccccc3)C(C)=C1C2(C)C [Cabazitaxel, 4α-acetoxy-2α-benzoyloxy-5β,20-epoxy-1p-hydroxy-7β,10β-dimethoxy-9-oxo-11-taxen-13α-yl (2R,3S)-3-tert-butoxycarbonylamino-2-hydroxy-3-phenylpropionate]
- Patients estimated to have a symptomatic skeletal event at 18 months ([1]; 18 months): 28.8%
- Kaplan-Meier probability of not having symptomatic skeletal events ([1]; at 3 months): 92.6%
- Kaplan-Meier probability of not having symptomatic skeletal events ([1]; at 6 months): 85.8%
- Kaplan-Meier probability of not having symptomatic skeletal events ([1]; at 12 months): 79.4%
- Kaplan-Meier probability of not having symptomatic skeletal events ([1]; at 18 months): 71.2%
- Time to symptomatic skeletal events, hazard ratio [1, 3]: 0.59
- Surgery to the bone (first SSE) ([1]; human, in vivo): 0 n
- Deaths [2]: 54.3%
- Deaths ([2]; number): 70
- Radiographic progression-free survival, hazard ratio, post hoc ([2]; cabazitaxel vs abiraterone acetate): 0.44
- Overall survival, HR in multivariate analysis ([2]; cabazitaxel vs abiraterone/enzalutamide, in presence of low hemoglobin, high baseline NLR, high PSA): 0.63
- Imaging-based progression-free survival, hazard ratio [2, 3]: 0.54
- Overall survival, hazard ratio [2, 3]: 0.64
- Progression-free survival, hazard ratio [2, 3]: 0.52
- Radiographic progression-free survival, hazard ratio, post hoc ([2]; cabazitaxel vs enzalutamide): 0.57
- Reduction of the risk of death from any cause ([2]; compared with abiraterone acetate or enzalutamide, all patients): 36%
- Confirmed PSA reduction ≥50% from baseline ([2]; evaluable patients): (35.7) %
- Confirmed PSA reduction ≥50% from baseline ([2]; evaluable patients, listed as cabazitaxel): 35.7%
- Radiographic progression-free survival, treatment effect hazard ratio, multivariate ([2]; fixed model MV-1): 0.54
- Overall survival, median ([2]; from randomization): 13.6 months
- Median OS from time of 1st LET ([2]; human, in vivo): 36.4 months
- Median OS from time of 2nd LET ([2]; human, in vivo): 24.2 months
- Median OS from time of 3rd LET ([2]; human, in vivo): 13.6 months
- Median OS from time of mCRPC diagnosis ([2]; human, in vivo): 40.9 months
- Median OS from time of metastatic disease diagnosis ([2]; human, in vivo): 54.7 months
- Progression-free survival, median ([2]; human, in vivo): 4.4 months
- Treatment discontinuation for disease progression ([2]; human, in vivo): 43.7%
- Imaging-based progression-free survival, median ([2]; intention-to-treat population): 8.0 months
- Overall response rate ([2]; measurable disease): 36.5%
- Tumor response, complete ([2]; measurable disease): 0 n
- Tumor response, progressive disease ([2]; measurable disease): 15 n
- Confirmed PSA reduction ≥50% from baseline ([2]; number of patients, evaluable 115 and 111): 41
- rPFS, HR ([2]; patients 70 years or older): 0.58
- rPFS, HR ([2]; patients aged <70 years): 0.47
- Radiographic progression-free survival, treatment effect hazard ratio, multivariate ([2]; stepwise model MV-2): 0.50
- Radiographic progression-free survival, treatment effect hazard ratio, multivariate ([2]; stepwise model MV-3): 0.52
- Reduction in the risk of death ([2]; vs abiraterone or enzalutamide, both in patients ≥70 and <70 years): 34%
